Results as given in US11046694B2, “Compounds and methods for treating bacterial infections” (Entasis Therapeutics, Inc., priority 2018, dated 2021).
Converted amounts (≈) assume the structure as drawn. Structures can show the parent of a compound that is named as a salt.

Legend:
P. aeruginosa PBP1a = P. aeruginosa PBP1a (Pseudomonas aeruginosa, UniProt Q07806); format: biochemical; conditions: P. aeruginosa PBP1a 60 nM, BOCILLIN FL 30 nM, pH 7.0
P. aeruginosa PBP2 = molecular target: T1, P. aeruginosa PBP2 (Pseudomonas aeruginosa, UniProt Q9X6V3); format: biochemical; conditions: P. aeruginosa PBP2 300 nM, BOCILLIN FL 30 nM, pH 6.2
T1 sequence (Q9X6V3 1-646): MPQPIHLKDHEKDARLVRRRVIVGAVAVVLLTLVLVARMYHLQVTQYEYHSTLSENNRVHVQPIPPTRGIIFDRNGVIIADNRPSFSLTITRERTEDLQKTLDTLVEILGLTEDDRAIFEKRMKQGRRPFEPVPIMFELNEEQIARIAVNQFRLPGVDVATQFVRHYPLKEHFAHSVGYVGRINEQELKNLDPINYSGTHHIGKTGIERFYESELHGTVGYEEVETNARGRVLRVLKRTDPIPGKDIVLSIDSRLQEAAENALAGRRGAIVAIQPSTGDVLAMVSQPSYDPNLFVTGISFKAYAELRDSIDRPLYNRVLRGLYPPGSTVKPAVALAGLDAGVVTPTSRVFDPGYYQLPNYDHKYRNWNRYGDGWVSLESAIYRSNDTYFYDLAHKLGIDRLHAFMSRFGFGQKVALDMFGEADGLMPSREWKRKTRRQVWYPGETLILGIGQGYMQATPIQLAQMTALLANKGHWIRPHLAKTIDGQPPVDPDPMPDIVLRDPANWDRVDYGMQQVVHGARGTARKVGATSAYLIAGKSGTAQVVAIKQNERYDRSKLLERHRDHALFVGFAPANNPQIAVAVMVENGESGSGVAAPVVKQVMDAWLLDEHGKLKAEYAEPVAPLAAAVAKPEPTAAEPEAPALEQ

P. aeruginosa PBP3 = P. aeruginosa PBP3 (Pseudomonas aeruginosa, UniProt G3XD46); format: biochemical; conditions: P. aeruginosa PBP3 60 nM, BOCILLIN FL 30 nM, pH 7.0
P. aeruginosa WT (PAO1) = test: MIC, CLSI broth microdilution, P. aeruginosa; format: cell-based; conditions: Pseudomonas aeruginosa, PAO1; CLSI broth microdilution; read-out: P. aeruginosa WT (PAO1) MIC
E. coli (ATCC25922) = test: MIC against E. coli; conditions: Escherichia coli, ATCC25922, read-out: E. coli MIC (ATCC25922) (mg/L)
A. baumannii (ARC3495) = test: MIC against A. baumannii; conditions: Acinetobacter baumannii, read-out: A. baumannii MIC (ARC3495) (mg/L)
[1] = test system: K. pneumoniae (ATCC700603); test: MIC against K. pneumoniae; conditions: Klebsiella pneumoniae, ATCC700603, read-out: K. pneumoniae MIC (ATCC700603)

P. aeruginosa PBP1a, sequence (Q07806 whole entry): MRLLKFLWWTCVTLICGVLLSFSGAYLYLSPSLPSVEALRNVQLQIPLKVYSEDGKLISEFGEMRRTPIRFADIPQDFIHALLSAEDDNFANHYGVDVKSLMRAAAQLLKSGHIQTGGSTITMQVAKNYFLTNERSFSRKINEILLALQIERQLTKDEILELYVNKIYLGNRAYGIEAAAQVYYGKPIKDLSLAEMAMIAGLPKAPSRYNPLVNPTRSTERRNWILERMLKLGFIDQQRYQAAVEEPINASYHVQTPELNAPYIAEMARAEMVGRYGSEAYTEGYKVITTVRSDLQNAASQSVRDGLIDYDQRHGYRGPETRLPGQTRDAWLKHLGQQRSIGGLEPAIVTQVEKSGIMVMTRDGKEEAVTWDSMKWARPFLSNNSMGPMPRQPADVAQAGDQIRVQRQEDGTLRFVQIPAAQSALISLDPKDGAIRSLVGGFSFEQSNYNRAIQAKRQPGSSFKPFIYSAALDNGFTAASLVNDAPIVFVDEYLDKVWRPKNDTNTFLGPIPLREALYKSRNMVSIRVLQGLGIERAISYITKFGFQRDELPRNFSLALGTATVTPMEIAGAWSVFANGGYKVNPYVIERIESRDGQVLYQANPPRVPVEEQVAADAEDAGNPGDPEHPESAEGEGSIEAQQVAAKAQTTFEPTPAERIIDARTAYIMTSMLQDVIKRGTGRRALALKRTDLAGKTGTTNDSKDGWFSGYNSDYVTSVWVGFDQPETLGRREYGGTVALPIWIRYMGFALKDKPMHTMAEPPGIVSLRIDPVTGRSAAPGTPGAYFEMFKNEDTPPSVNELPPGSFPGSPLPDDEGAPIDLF
P. aeruginosa PBP3, sequence (G3XD46 whole entry): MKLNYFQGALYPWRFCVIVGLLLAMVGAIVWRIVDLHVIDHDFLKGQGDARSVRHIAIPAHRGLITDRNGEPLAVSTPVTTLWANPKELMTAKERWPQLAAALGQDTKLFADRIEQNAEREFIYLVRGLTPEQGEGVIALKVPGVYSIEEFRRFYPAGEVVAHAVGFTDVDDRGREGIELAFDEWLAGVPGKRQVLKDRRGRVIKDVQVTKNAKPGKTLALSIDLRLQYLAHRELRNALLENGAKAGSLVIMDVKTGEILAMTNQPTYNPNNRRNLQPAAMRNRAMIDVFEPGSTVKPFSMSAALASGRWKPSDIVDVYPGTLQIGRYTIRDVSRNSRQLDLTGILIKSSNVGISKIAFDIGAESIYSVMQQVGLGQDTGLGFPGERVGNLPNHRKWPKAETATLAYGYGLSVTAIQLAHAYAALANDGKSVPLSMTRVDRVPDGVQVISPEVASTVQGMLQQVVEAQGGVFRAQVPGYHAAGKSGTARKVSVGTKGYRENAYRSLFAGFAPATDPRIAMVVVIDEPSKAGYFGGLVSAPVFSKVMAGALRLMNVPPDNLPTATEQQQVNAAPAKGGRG

Row | MIC (P. aeruginosa WT (PAO1)) [µg/mL] | MIC (E. coli (ATCC25922)) [mg/L] | MIC (A. baumannii (ARC3495)) [mg/L] | MIC [1] [µg/mL] | SMILES | PBP1a acylation rate, k(on) (M^−1 · s^−1) (P. aeruginosa PBP1a) | PBP2 acylation rate, k(on) (M^−1 · s^−1) (P. aeruginosa PBP2) | PBP3 acylation rate, k(on) (M^−1 · s^−1) (P. aeruginosa PBP3)
1 | > 16 | < 8 | > 16 | < 8 | Cn1ncc2c1[C@@H](/C(N)=N/O)N1C[C@@H]2N(OS(=O)(=O)[O-])C1=O.[Na+] [Example 3, Sodium (4R,8S)-8-((Z)—N′-hydroxycarbamimidoyl)-1-methyl-6-oxo-4,8-dihydro-1H-4,7-methanopyrazolo[3,4-e][1,3]diazepin-5(6H)-yl sulfate] | * (* represents a k(on) < 100 M^−1 · s^−1) | * (* represents a k(on) < 100 M^−1 · s^−1) | ** (** represents a k(on) of 100 to 10,000 M^−1 · s^−1)
2 | 8 to 16 | 8 to 16 | > 16 | > 16 | C/C(=N\O)[C@@H]1c2c(cnn2C)[C@@H]2CN1C(=O)N2OS(=O)(=O)O [Example 71, (4R,8S)-8-((E)-1-(hydroxyimino)ethyl)-1-methyl-6-oxo-4,8-dihydro-1H-4,7-methanopyrazolo[3,4-e][1,3]diazepin-5(6H)-yl hydrogen sulfate] | * (* represents a k(on) < 100 M^−1 · s^−1) | * (* represents a k(on) < 100 M^−1 · s^−1) | ** (** represents a k(on) of 100 to 10,000 M^−1 · s^−1)
3 | > 16 | < 8 | > 16 | > 16 | Cn1ncc2c1[C@@H](C1=NOC(C(=O)O)C1)N1C[C@@H]2N(OS(=O)(=O)O)C1=O (mixture of isomers) [Example 35, 3-((4R,8S)-1-methyl-6-oxo-5-(sulfooxy)-4,5,6,8-tetrahydro-1H-4,7-methanopyrazolo[3,4-e][1,3]diazepin-8-yl)-4,5-dihydroisoxazole-5-carboxylic acid] | * (* represents a k(on) < 100 M^−1 · s^−1) | * (* represents a k(on) < 100 M^−1 · s^−1) | ** (** represents a k(on) of 100 to 10,000 M^−1 · s^−1)
4 | < 8 | < 8 | < 8 | < 8 | CN/C(=N\O)[C@@H]1c2c(cnn2CCN)[C@@H]2CN1C(=O)N2OS(=O)(=O)O [Example 47, (4R,8S)-1-(2-aminoethyl)-8-((Z)—N′-hydroxy-N-methylcarbamimidoyl)-6-oxo-4,8-dihydro-1H-4,7-methanopyrazolo[3,4-e][1,3]diazepin-5(6H)-yl hydrogen sulfate] | ** (** represents a k(on) of 100 to 10,000 M^−1 · s^−1) | * (* represents a k(on) < 100 M^−1 · s^−1) | *** (*** represents a k(on) > 10,000 M^−1 · s^−1)
5 | 8 to 16 (≈ 22.1 to 44.2 µM) | < 8 | 8 to 16 (≈ 22.1 to 44.2 µM) | < 8 | CON/C(=N\O)[C@@H]1c2c(cnn2C)[C@@H]2CN1C(=O)N2OS(=O)(=O)O (racemic) [Example 11] | ** (** represents a k(on) of 100 to 10,000 M^−1 · s^−1) | * (* represents a k(on) < 100 M^−1 · s^−1) | *** (*** represents a k(on) > 10,000 M^−1 · s^−1)
6 | > 16 | < 8 | > 16 | > 16 | Cn1ncc2c1[C@@H](/C(=N/O)NCCCCN)N1C[C@@H]2N(OS(=O)(=O)O)C1=O (racemic) [Example 8] | * (* represents a k(on) < 100 M^−1 · s^−1) | * (* represents a k(on) < 100 M^−1 · s^−1) | * (* represents a k(on) < 100 M^−1 · s^−1)
7 | > 16 | < 8 | > 16 | > 16 | CN(N)/C(=N\OS(=O)(=O)O)[C@@H]1c2c(cnn2C)[C@@H]2CN1C(=O)N2OS(=O)(=O)O [Example 72, ((((Z)-((4R,8S)-1-methyl-6-oxo-5-(sulfooxy)-4,5,6,8-tetrahydro-1H-4,7-methanopyrazolo[3,4-e][1,3]diazepin-8-yl)(1-methylhydrazineyl)methylene)amino)oxy)sulfonic acid] | ** (** represents a k(on) of 100 to 10,000 M^−1 · s^−1) | * (* represents a k(on) < 100 M^−1 · s^−1) | *** (*** represents a k(on) > 10,000 M^−1 · s^−1)
8 | > 16 | < 8 | > 16 | > 16 | Cn1ncc2c1[C@@H](c1noc(=O)n1C)N1C[C@@H]2N(OS(=O)(=O)O)C1=O [Example 66, ((4R,8S)-1-methyl-8-(4-methyl-5-oxo-4,5-dihydro-1,2,4-oxadiazol-3-yl)-6-oxo-4,8-dihydro-1H-4,7-methanopyrazolo[3,4-e][1,3]diazepin-5(6H)-yl hydrogen sulfate] | ** (** represents a k(on) of 100 to 10,000 M^−1 · s^−1) | * (* represents a k(on) < 100 M^−1 · s^−1) | ** (** represents a k(on) of 100 to 10,000 M^−1 · s^−1)
9 | < 8 | < 8 | > 16 | < 8 | Cn1ncc2c1[C@@H](CN)N1C[C@@H]2N(OS(=O)(=O)O)C1=O [Comparator 1, reference compound] | * (* represents a k(on) < 100 M^−1 · s^−1) | *** (*** represents a k(on) > 5,000 M^−1 · s^−1) | * (* represents a k(on) < 100 M^−1 · s^−1)
10 | > 16 | < 8 | > 16 | > 16 | CC1C([C@@H]2c3c(cnn3C)[C@@H]3CN2C(=O)N3OS(=O)(=O)O)=NOC1CO (mixture of isomers) [Example 39, Pyridium (4R,8S)-8-(5-(hydroxymethyl)-4-methyl-4,5-dihydroisoxazol-3-yl)-1-methyl-6-oxo-4,8-dihydro-1H-4,7-methanopyrazolo[3,4-e][1,3]diazepin-5(6H)-yl hydrogen sulfate] | * (* represents a k(on) < 100 M^−1 · s^−1) | * (* represents a k(on) < 100 M^−1 · s^−1) | ** (** represents a k(on) of 100 to 10,000 M^−1 · s^−1)
11 | > 16 | < 8 | > 16 | > 16 | Cn1ncc2c1[C@@H](c1noc(=O)n1Cc1nc(N)cs1)N1C[C@@H]2N(OS(=O)(=O)O)C1=O [Example 53, (4R,8S)-8-(4-((4-aminothiazol-2-yl)methyl)-5-oxo-4,5-dihydro-1,2,4-oxadiazol-3-yl)-1-methyl-6-oxo-4,8-dihydro-1H-4,7-methanopyrazolo[3,4-e][1,3]diazepin-5(6H)-yl hydrogen sulfate] | ** (** represents a k(on) of 100 to 10,000 M^−1 · s^−1) | * (* represents a k(on) < 100 M^−1 · s^−1) | ** (** represents a k(on) of 100 to 10,000 M^−1 · s^−1)
12 | > 16 | < 8 | > 16 | > 16 | Cn1ncc2c1[C@@H](/C(=N/OC(=O)NC(C)(C)C(=O)O)NCc1nc(N)cs1)N1C[C@@H]2N(OS(=O)(=O)O)C1=O [Example 52, (Z)-1-(4-aminothiazol-2-yl)-8,8-dimethyl-3-((4R,8S)-1-methyl-6-oxo-5-(sulfooxy)-4,5,6,8-tetrahydro-1H-4,7-methanopyrazolo[3,4-e][1,3]diazepin-8-yl)-6-oxo-5-oxa-2,4,7-triazanon-3-en-9-oic acid] | ** (** represents a k(on) of 100 to 10,000 M^−1 · s^−1) | * (* represents a k(on) < 100 M^−1 · s^−1) | ** (** represents a k(on) of 100 to 10,000 M^−1 · s^−1)

Row | SMILES | MIC (P. aeruginosa WT (PAO1)) [µg/mL] | MIC (E. coli (ATCC25922)) [mg/L] | MIC (A. baumannii (ARC3495)) [mg/L] | MIC [1] [µg/mL] | PBP1a acylation rate, k(on) (M^−1 · s^−1) (P. aeruginosa PBP1a) | PBP2 acylation rate, k(on) (M^−1 · s^−1) (P. aeruginosa PBP2) | PBP3 acylation rate, k(on) (M^−1 · s^−1) (P. aeruginosa PBP3)
13 | CN/C(=N\O)[C@@H]1c2c(cnn2C)[C@@H]2CN1C(=O)N2OS(=O)(=O)O (stereo in doubt) [Example 1, sodium (4R,8S)-8-((Z)—N′-hydroxy-N-methylcarbamimidoyl)-1-methyl-6-oxo-4,8-dihydro-1H-4,7-methanopyrazolo[3,4-e][1,3]diazepin-5(6H)-yl sulfate] | < 8 | < 8 | < 8 | < 8 | ** (** represents a k(on) of 100 to 10,000 M^−1 · s^−1) | * (* represents a k(on) < 100 M^−1 · s^−1) | *** (*** represents a k(on) > 10,000 M^−1 · s^−1)
